The values below come from patent US20250032625A1, “HETEROBIFUNCTIONAL MOLECULES AS TEAD INHIBITORS” (Merck Patent GmbH, priority 2021, published 2025).

The target of test [1] is TEAD1 in SK-HEP1 cells (Homo sapiens (Human), UniProt P28347). As to the kind of experiment: TEAD degradation in SK-HEP1 cell line (immunofluorescence). Format: cell-based. As for the experimental part: (§1) Degradation of TEAD isoform TEAD1 by exemplary compounds which has been determined at different time points in two different cell lines, SK-HEP1 and NCI-H226: For the assay, SK-HEP1 (ATCC HTB-52) and NCI-H226 (ATCC CRL-5826) cells were treated in duplicates with the test compounds in a 10-point dose, 1:3 dilution steps, with the top concentration starting at 30 uM (final concentration in assay). After either 16 or 24 hour incubation at 37° C., 95% rH, and 5% CO2, the cells were fixed with 4% PFA and TEAD1 levels were probed using immunofluorescence. The primary antibody used was Anti-TEF1 (BD, 610293) and the secondary antibody used was Alexa Fluor® 488 Goat Anti-Mouse IgG (H+L) (Molecular Probes, A-11001). Finally, the cell nuclei were co-stained by Hoechst 33258 (Invitrogen, H-3569) and imaged using a high content imager. The amount of TEAD degradation was determined by quantifying the fluorescence intensity levels of Anti-TEF1 in each individual cell per well. DC50 was calculated using curve fitting software Genedata Screener. Cell media: The SK-HEP1 cells were cultured in the following media: MEM, +10% FCS, +1× GlutaMAX, +100 μM NEAA, +10 mM HEPES, +0.5% Pen/Strep. The NCI-H226 cells were cultured in the following media: RPMI 1640, +10% FBS, +1× GlutaMAX, +10 mM HEPES, +0.5% Pen/Strep.
Chain of TEAD1 in SK-HEP1 cells (P28347 whole entry, canonical isoform): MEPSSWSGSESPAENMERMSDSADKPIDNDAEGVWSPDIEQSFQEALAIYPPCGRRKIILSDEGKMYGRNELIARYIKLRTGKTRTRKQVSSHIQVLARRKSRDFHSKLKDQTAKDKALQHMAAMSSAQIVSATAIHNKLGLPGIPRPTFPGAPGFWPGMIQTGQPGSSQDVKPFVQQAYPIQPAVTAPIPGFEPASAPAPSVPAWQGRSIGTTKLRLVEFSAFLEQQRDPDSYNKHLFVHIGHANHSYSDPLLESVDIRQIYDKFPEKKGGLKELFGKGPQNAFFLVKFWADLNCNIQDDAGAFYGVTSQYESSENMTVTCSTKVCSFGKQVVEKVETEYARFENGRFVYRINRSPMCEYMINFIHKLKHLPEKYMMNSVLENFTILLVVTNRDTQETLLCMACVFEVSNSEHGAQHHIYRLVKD

In test [2] the target is TEAD1 in NCI-H226 cells (Homo sapiens (Human), UniProt P28347). In words: TEAD degradation in NCI-H226 cell line (immunofluorescence). Format: cell-based. As for the experimental part: as §1
Chain of TEAD1 in NCI-H226 cells (P28347 whole entry): as the sequence (P28347 whole entry, canonical isoform) above
The mark [3] stands for this setting: 24 hours, ranges, read-out: DC50 SK-HEP1.
Where [4] appears, read: 24 hours, ranges, read-out: DC50 NCI-H226.
Where [5] appears, read: 24 h incubation, read-out: DC50 SK-HEP1 24 h.
The mark [6] stands for this setting: 24 h incubation, read-out: DC50 NCI-H226 24 h.

Read-outs that look alike come from different tables or passages of the source. A value given as a limit tells only on which side of the number the result lay.

In the case of `Cc1ncsc1-c1ccc(CNC(=O)[C@@H]2C[C@@H](O)CN2C(=O)[C@@H](NC(=O)CCCCCC(=O)N(C)CCOCCOCCNC(=O)c2ccc3c(c2)c2cn(C)nc2n3-c2ccc(C(F)(F)F)cc2)C(C)(C)C)cc1` [Compound 53, N-[(2S)-1-[(2S,4R)-4-hydroxy-2-({[4-(4-methyl-1,3-thiazol-5-yl)phenyl]-methyl}carbamoyl)pyrrolidin-1-yl]-3,3-dimethyl-1-oxobutan-2-yl]-N′-methyl-N′-(2-{2-[2-({2-methyl-8-[4-(trifluoromethyl)phenyl]-2H,8H-pyrazolo[3,4-b]indol-5-yl}formamido)ethoxy]ethoxy}ethyl) heptanediamide], the DC50 in test [1] (setting [3]) and in test [2] (setting [4]) was 100 to 1000 nM in each case.
For `Cc1ncsc1-c1ccc(CNC(=O)[C@@H]2C[C@@H](O)CN2C(=O)[C@@H](NC(=O)CCCCCCCCCNC(=O)c2ccc3c(c2)c2cn(C)nc2n3-c2ccc(C(F)(F)F)cc2)C(C)(C)C)cc1` [Compound 20, (2S,4R)-1-[(2S)-3,3-dimethyl-2-[10-({2-methyl-8-[4-(trifluoromethyl)phenyl]-2H,8H-pyrazolo[3,4-b]indol-5-yl}formamido)decanamido]butanoyl]-4-hydroxy-N-{[4-(4-methyl-1,3-thiazol-5-yl)phenyl]methyl}pyrrolidine-2-carboxamide], the DC50 in test [1] (setting [5]) is 190 nM; in test [1] (setting [3]), 100 to 1000 nM; in test [2] (setting [6]), 300 nM; in test [2] (setting [4]) it was 100 to 1000 nM.
Consider `Cc1ncsc1-c1ccc(CNC(=O)[C@@H]2C[C@@H](O)CN2C(=O)[C@@H](NC(=O)CCCCCCCCCOCCOCCNC(=O)c2ccc3c(c2)c2cn(C)nc2n3-c2ccc(C(F)(F)F)cc2)C(C)(C)C)cc1` [Compound 56], for which the DC50 in test [1] (setting [3]) and in test [2] (setting [4]) was 100 to 1000 nM each time.
As for `Cc1ncsc1-c1ccc(CNC(=O)[C@@H]2C[C@@H](O)CN2C(=O)[C@@H](NC(=O)CCCCCc2cnnn2CCCCCCCNC(=O)c2ccc3c(c2)c2cn(C)nc2n3-c2ccc(C(F)(F)F)cc2)C(C)(C)C)cc1` [Compound 37, (2S,4R)-1-[(2S)-3,3-dimethyl-2-(6-{1-[7-({2-methyl-8-[4-(trifluoromethyl)-phenyl]-2H,8H-pyrazolo[3,4-b]indol-5-yl}formamido)heptyl]-1H-1,2,3-triazol-5-yl}hexanamido)butanoyl]-4-hydroxy-N-{[4-(4-methyl-1,3-thiazol-5-yl)phenyl]methyl}pyrrolidine-2-carboxamide], the DC50 in test [1] (setting [3]) and in test [2] (setting [4]) was 100 to 1000 nM throughout.
As for `Cc1ncsc1-c1ccc(CNC(=O)[C@@H]2C[C@@H](O)CN2C(=O)[C@@H](NC(=O)CCCCCCOCCOCCOCCNC(=O)c2ccc3c(c2)c2cn(C)nc2n3-c2ccc(C(F)(F)F)cc2)C(C)(C)C)cc1` [Compound 60, (2S,4R)-1-[(2S)-3,3-dimethyl-2-[7-(2-{2-[2-({2-methyl-8-[4-(trifluoro-methyl)phenyl]-2H,8H-pyrazolo[3,4-b]indol-5-yl}formamido)ethoxy]-ethoxy}ethoxy)heptanamido]butanoyl]-4-hydroxy-N-{[4-(4-methyl-1,3-thiazol-5-yl)phenyl]methyl}pyrrolidine-2-carboxamide], the DC50 in test [1] (setting [3]) and in test [2] (setting [4]) was 100 to 1000 nM each time.
For the compound `Cc1ncsc1-c1ccc(CNC(=O)[C@@H]2C[C@@H](O)CN2C(=O)[C@@H](NC(=O)CCCCCc2cn(CCCCCCNC(=O)c3ccc4c(c3)c3cn(C)nc3n4-c3ccc(C(F)(F)F)cc3)nn2)C(C)(C)C)cc1` [Compound 35, (2S,4R)-1-[(2S)-3,3-dimethyl-2-(6-{1-[6-({2-methyl-8-[4-(trifluoromethyl)phenyl]-2H,8H-pyrazolo[3,4-b]indol-5-yl}formamido)hexyl]-1H-1,2,3-triazol-4-yl}hexanamido)butanoyl]-4-hydroxy-N-{[4-(4-methyl-1,3-thiazol-5-yl)phenyl]methyl}pyrrolidine-2-carboxamide], the DC50 in test [1] (setting [3]) and in test [2] (setting [4]) was less than 100 nM in each case.
In the case of `Cc1ncsc1-c1ccc(CNC(=O)[C@@H]2C[C@@H](O)CN2C(=O)[C@@H](NC(=O)CCCCCCOCCNC(=O)c2ccc3c(c2)c2cn(C)nc2n3-c2ccc(C(F)(F)F)cc2)C(C)(C)C)cc1` [Compound 77, (2S,4R)-1-[(2S)-3,3-dimethyl-2-{7-[2-({2-methyl-8-[4-(trifluoromethyl)-phenyl]-2H,8H-pyrazolo[3,4-b]indol-5-yl}formamido)ethoxy]heptanamido}-butanoyl]-4-hydroxy-N-{[4-(4-methyl-1,3-thiazol-5-yl)phenyl]methyl}-pyrrolidine-2-carboxamide], in test [1] (setting [3]), the DC50 lay in the range of 100 to 1000 nM.
On to `Cc1ncsc1-c1ccc(CNC(=O)[C@@H]2C[C@@H](O)CN2C(=O)[C@@H](NC(=O)COCCOCCOCCOCCOCCOCCNC(=O)c2ccc3c(c2)c2cn(C)nc2n3-c2ccc(C(F)(F)F)cc2)C(C)(C)C)cc1` [Compound 32, (2S,4R)-1-[(2S)-3,3-dimethyl-2-[20-({2-methyl-8-[4-(trifluoromethyl)phenyl]-2H,8H-pyrazolo[3,4-b]indol-5-yl}formamido)-3,6,9,12,15,18-hexaoxaicosanamido]butanoyl]-4-hydroxy-N-{[4-(4-methyl-1,3-thiazol-5-yl)phenyl]methyl}pyrrolidine-2-carboxamide], for which the DC50 in test [1] (setting [5]) was 1100 nM; in test [1] (setting [3]), 1000 to 3000 nM; in test [2] (setting [4]) it was 1000 to 3000 nM.
Regarding `Cn1cc2c3cc(C(=O)NCCOCCOCCOCCOCCNc4cccc5c4CN(C4CCC(=O)NC4=O)C5=O)ccc3n(-c3ccc(C(F)(F)F)cc3)c2n1` (centres unmarked) [Compound 43, N-(14-{[2-(2,6-dioxopiperidin-3-yl)-1-oxo-2,3-dihydro-1H-isoindol-4-yl]amino}-3,6,9,12-tetraoxatetradecan-1-yl)-2-methyl-8-[4-(trifluoromethyl)phenyl]-2H,8H-pyrazolo[3,4-b]indole-5-carboxamide], the DC50 in test [1] (setting [3]) fell in the range of 9000 to 30000 nM; in test [2] (setting [4]), 100 to 1000 nM.
For `Cn1cc2c3cc(C(=O)NCCOCCOCCOCCOCCOc4ccc5c(c4)C(=O)N(C4CCC(=O)NC4=O)C5=O)ccc3n(-c3ccc(C(F)(F)F)cc3)c2n1` (centres unmarked) [Compound 88, N-(14-{[2-(2,6-dioxopiperidin-3-yl)-1,3-dioxo-2,3-dihydro-1H-isoindol-5-yl]oxy}-3,6,9,12-tetraoxatetradecan-1-yl)-2-methyl-8-[4-(trifluoromethyl)phenyl]-2H,8H-pyrazolo[3,4-b]indole-5-carboxamide], the DC50 in test [1] (setting [3]) and in test [2] (setting [4]) was 100 to 1000 nM each time.
As for `Cc1ccc2c(c1)c1cc(C(=O)NCCOCCOCCOCCOCCNc3cccc4c3C(=O)N(C3CCC(=O)NC3=O)C4=O)ccc1n2-c1ccc(C(F)(F)F)cc1` (centres unmarked) [Compound 46, N-(14-{[2-(2,6-dioxopiperidin-3-yl)-1,3-dioxo-2,3-dihydro-1H-isoindol-4-yl]amino}-3,6,9,12-tetraoxatetradecan-1-yl)-6-methyl-9-[4-(trifluoro-methyl)phenyl]-9H-carbazole-3-carboxamide], the DC50 in test [1] (setting [3]) and in test [2] (setting [4]) was 100 to 1000 nM each time.
As for `Cc1ncsc1-c1ccc([C@H](C)NC(=O)[C@@H]2C[C@@H](O)CN2C(=O)[C@@H](NC(=O)CCCCCc2cn(CCCCOCCNC(=O)c3ccc4c(c3)c3cn(C)nc3n4-c3ccc(C(F)(F)F)cc3)nn2)C(C)(C)C)cc1` [Compound 82, (2S,4R)-1-[(2S)-3,3-dimethyl-2-[6-(1 {4-[2-({2-methyl-8-[4-(trifluoro-methyl)phenyl]-2H,8H-pyrazolo[3,4-b]indol-5-yl}formamido)ethoxy]butyl}-1H-1,2,3-triazol-4-yl)hexanamido]butanoyl]-4-hydroxy-N-[(1S)-1-[4-(4-methyl-1,3-thiazol-5-yl)phenyl]ethyl]pyrrolidine-2-carboxamide], the DC50 in test [1] (setting [3]) and in test [2] (setting [4]) was 100 to 1000 nM throughout.
In the case of `Cn1cc2c3cc(C(=O)NCCOCCOCCOCCOCCOCC(=O)Nc4cccc5c4C(=O)N(C4CCC(=O)NC4=O)C5=O)ccc3n(-c3ccc(C(F)(F)F)cc3)c2n1` (centres unmarked) [Compound 10, N-[2-(2,6-dioxopiperidin-3-yl)-1,3-dioxo-2,3-dihydro-1H-isoindol-4-yl]-17-({2-methyl-8-[4-(trifluoromethyl)phenyl]-2H,8H-pyrazolo[3,4-b]indol-5-yl}formamido)-3,6,9,12,15-pentaoxaheptadecanamide], the DC50 in test [2] (setting [6]) was 20000 nM; in test [2] (setting [4]), 1000 to 3000 nM.
Regarding `Cn1cc2c3cc(C(=O)NCCOCCOCCNC(=O)CCCCCCNc4cccc5c4CN(C4CCC(=O)NC4=O)C5=O)ccc3n(-c3ccc(C(F)(F)F)cc3)c2n1` (centres unmarked) [Compound 15, 7-{[2-(2,6-dioxopiperidin-3-yl)-1-oxo-2,3-dihydro-1H-isoindol-4-yl]amino}-N-(2-{2-[2-({2-methyl-8-[4-(trifluoromethyl)phenyl]-2H,8H-pyrazolo[3,4-b]indol-5-yl}formamido)ethoxy]ethoxy}ethyl) heptanamide], the 50% degradation concentration (DC50) in test [2] (setting [4]) lay within 1000 to 3000 nM.

Usually DC50 stands for the concentration at which degradation of the target reaches its halfway point.
